Values after ≈ are worked out from the molar mass of the structure shown.
Legend:
pathogenic bacteria = assay: Antimicrobial activity (overall); format: cell-based
Description: (§1) Antimicrobial activity of N-acetylesperamicin A1 was determined for a variety of bacteria by the serial two-fold agar dilution method. Nutrient agar medium was used.

HCT-116 = assay: In vitro cytotoxicity assay; format: cell-based; conditions: Homo sapiens, cell growth inhibition, four-fold serial dilution, values <500 mcg/ml positive indicator of activity
Description: (§2) N-Acetylesperamicin A1 was also tested in the in vitro cytotoxicity assay. This assay involves growing various mammalian tumor cells, including human tumor cells, on microtiter plates employing established tissue culture methods. The concentration of compound required to inhibit cell growth by 50% (IC50) was then determined by a four-fold serial dilution technique. The validity of the method has been supported by a report published in the "Proceedings of the American Association for Cancer Research", Vol. 25, 328, p. 1891 (1984). Tumor cells of the following types were employed: B16-F10 murine melanoma, Moser human colon, and three human colon tumor cell lines, namely HCT-116, HCT-VM34 and HCT/VP35, the latter two being resistant to teniposide (VM) and etoposide (VP).

Moser human colon = assay: In vitro cytotoxicity assay; format: cell-based; conditions: cell growth inhibition, four-fold serial dilution, values <500 mcg/ml positive indicator of activity
Description: as §2

B16-F10 murine melanoma = assay: In vitro cytotoxicity assay; format: cell-based; conditions: Mus musculus, cell growth inhibition, four-fold serial dilution, values <500 mcg/ml positive indicator of activity
Description: as §2

HCT/VM34 = assay: In vitro cytotoxicity assay; format: cell-based; conditions: Homo sapiens; HCT/VM34, teniposide-resistant; cell growth inhibition; values <500 mcg/ml positive indicator of activity
Description: as §2

HCT/VP35 = assay: In vitro cytotoxicity assay; format: cell-based; conditions: Homo sapiens; HCT/VP35, etoposide-resistant; cell growth inhibition; values <500 mcg/ml positive indicator of activity
Description: as §2

E. coli A15119 = assay: Antimicrobial activity, serial two-fold agar dilution; format: cell-based; conditions: Escherichia coli, nutrient agar medium
Description: as §1

[1] = system: S. faecalis/ATCC 29218 A25707; assay: as above; format: cell-based; conditions: Enterococcus faecalis, ATCC29218; nutrient agar medium
Description: as §1

P. vulgaris A21559 = assay: as above; format: cell-based; conditions: Proteus vulgaris, nutrient agar medium
Description: as §1

[2] = system: S. aureus/NCCLS strain A20698; assay: as above; format: cell-based; conditions: Staphylococcus aureus; nutrient agar medium
Description: as §1

P. aeruginosa A9843 = assay: as above; format: cell-based; conditions: Pseudomonas aeruginosa, nutrient agar medium
Description: as §1

[3] = system: B. subtilis/ATCC 6633 A9506-A; assay: as above; format: cell-based; conditions: Bacillus subtilis, ATCC6633; nutrient agar medium
Description: as §1

[4] = system: P. aeruginosa/ATCC 27853 A21508; assay: as above; format: cell-based; conditions: Pseudomonas aeruginosa, ATCC27853; nutrient agar medium
Description: as §1

[5] = system: E. coli/NCCLS strain A20697; assay: as above; format: cell-based; conditions: Escherichia coli; nutrient agar medium
Description: as §1

[6] = system: S. aureus/ATCC 29213 A24407; assay: as above; format: cell-based; conditions: Staphylococcus aureus, ATCC29213; nutrient agar medium
Description: as §1

K. pneumoniae A9664 = assay: as above; format: cell-based; conditions: Klebsiella pneumoniae, nutrient agar medium
Description: as §1

K. pneumoniae A20468 = assay: as above; format: cell-based; conditions: Klebsiella pneumoniae, nutrient agar medium
Description: as §1

[7] = system: S. faecalis/ATCC 33186 A15708; assay: as above; format: cell-based; conditions: Enterococcus faecalis, ATCC33186; nutrient agar medium
Description: as §1

S. aureus A9537 = assay: as above; format: cell-based; conditions: Staphylococcus aureus, nutrient agar medium
Description: as §1

S. faecalis A20688 = assay: as above; format: cell-based; conditions: Enterococcus faecalis, nutrient agar medium
Description: as §1

[8] = system: P. aeruginosa/ATCC 23389 A20235; assay: as above; format: cell-based; conditions: Pseudomonas aeruginosa, ATCC23389; nutrient agar medium
Description: as §1

P388 murine leukemia = assay: P388 In Vivo Murine Leukemia Assay; set-up: species or system CDF1 female mice; conditions: i.p., once on day 1; for % T/C (median survival time): >=125% significant; for MST: control MST 9.5 days; for Average Wgt. change in g (day 4): control 1.1; for No. Mice alive on day 5/total: control 10/10
Description: The test protocol involved CDF1 female mice implanted intraperitoneally with a tumor inoculum of 10^6 ascites cells of P388 murine leukemia and treated with various doses of test compound. The compound was administered by intraperitoneal injection on a certain dosage schedule, i.e. test drug given once on day one, the day of tumor inoculation. Groups of four mice were used for each dosage amount. A group of ten saline-treated control mice was employed.
The test compound was dissolved in a mixture of water and ethanol. Death or survival of the treated and non-treated mice was recorded daily, and the median survival time (MST) in days was calculated for the test (T) and control (C) groups. […] Mice weighing 20 g each were employed and a loss in weight of up to about 2 grams was not considered excessive.

Question: Which results are given for C=C(OC)C(=O)Nc1cc(OC)c(OC)cc1C(=O)OC1CC(OC2C(=O)C(NC(=O)OC)=C3C(=CCSSSC)C2(O)C#CC=CC#CC3OC2OC(C)C(NOC3CC(O)C(SC)C(C)O3)C(O)C2OC2CC(OC)C(N(C(C)=O)C(C)C)CO2)OC(C)C1O (stereo not shown) [N-Acetylesperamicin A1]?
Answer: Antibacterial activity (in words) (pathogenic bacteria): showed activity against a variety of pathogenic bacteria; IC50 (HCT-116): 0.0135 µg/mL (≈ 0.00987 µM); IC50 (Moser human colon): 1 µg/mL (≈ 0.731 µM); IC50 (B16-F10 murine melanoma): 0.0522 µg/mL (≈ 0.0382 µM); IC50 (HCT/VM34): 0.3 µg/mL (≈ 0.219 µM); IC50 (HCT/VP35): 0.0271 µg/mL (≈ 0.0198 µM); MIC (E. coli A15119): 32 µg/mL (≈ 23.4 µM); MIC [1]: 0.016 µg/mL (≈ 0.0117 µM); MIC (P. vulgaris A21559): 125 µg/mL (≈ 91.4 µM); MIC [2]: 0.016 µg/mL (≈ 0.0117 µM); MIC (P. aeruginosa A9843): > 125 µg/mL; MIC [3]: 0.03 µg/mL (≈ 0.0219 µM); MIC [4]: > 125 µg/mL; MIC [5]: 8 µg/mL (≈ 5.85 µM); MIC [6]: 0.03 µg/mL (≈ 0.0219 µM); MIC (K. pneumoniae A9664): 32 µg/mL (≈ 23.4 µM); MIC (K. pneumoniae A20468): > 125 µg/mL; MIC [7]: 0.016 µg/mL (≈ 0.0117 µM); MIC (S. aureus A9537): 0.008 µg/mL (≈ 0.00585 µM); MIC (S. faecalis A20688): 0.03 µg/mL (≈ 0.0219 µM); MIC [8]: 125 µg/mL (≈ 91.4 µM); % T/C (median survival time) (P388 murine leukemia; 0.0016 mg/kg): 147%; MST (P388 murine leukemia; 0.0016 mg/kg): 14.0 days; Average Wgt. change in g (day 4) (P388 murine leukemia; 0.0016 mg/kg): -0.5 g; No. Mice alive on day 5/total (P388 murine leukemia; 0.0016 mg/kg): 6/6; % T/C (median survival time) (P388 murine leukemia; 0.0032 mg/kg): 153%; MST (P388 murine leukemia; 0.0032 mg/kg): 14.5 days; Average Wgt. change in g (day 4) (P388 murine leukemia; 0.0032 mg/kg): -0.2 g; No. Mice alive on day 5/total (P388 murine leukemia; 0.0032 mg/kg): 6/6; % T/C (median survival time) (P388 murine leukemia; 0.0064 mg/kg): 147%; MST (P388 murine leukemia; 0.0064 mg/kg): 14.0 days; Average Wgt. change in g (day 4) (P388 murine leukemia; 0.0064 mg/kg): -1.7 g; No. Mice alive on day 5/total (P388 murine leukemia; 0.0064 mg/kg): 6/6; % T/C (median survival time) (P388 murine leukemia; 0.0128 mg/kg): 179%; MST (P388 murine leukemia; 0.0128 mg/kg): 17.0 days; Average Wgt. change in g (day 4) (P388 murine leukemia; 0.0128 mg/kg): -2.2 g; No. Mice alive on day 5/total (P388 murine leukemia; 0.0128 mg/kg): 6/6; % T/C (median survival time) (P388 murine leukemia; 0.0256 mg/kg): 63%; MST (P388 murine leukemia; 0.0256 mg/kg): 6.0 days; Average Wgt. change in g (day 4) (P388 murine leukemia; 0.0256 mg/kg): -3.1 g; No. Mice alive on day 5/total (P388 murine leukemia; 0.0256 mg/kg): 4/6; % T/C (median survival time) (P388 murine leukemia; 0.0512 mg/kg): 63%; MST (P388 murine leukemia; 0.0512 mg/kg): 6.0 days; Average Wgt. change in g (day 4) (P388 murine leukemia; 0.0512 mg/kg): -2.9 g; No. Mice alive on day 5/total (P388 murine leukemia; 0.0512 mg/kg): 4/6; % T/C (median survival time) (P388 murine leukemia; 0.0896 mg/kg): TOX; MST (P388 murine leukemia; 0.0896 mg/kg): TOX; Average Wgt. change in g (day 4) (P388 murine leukemia; 0.0896 mg/kg): -3.4 g; No. Mice alive on day 5/total (P388 murine leukemia; 0.0896 mg/kg): 0/6

— patent publication US4837206A, “Esperamicin derivatives” (Bristol-Myers Company, priority 1987, dated 1989)
